Assay results as given in patent publication US8178123B2, “Method for augmentation of intraepithelial and systemic exposure of therapeutic agents having substrate activity for cytochrome P450 enzymes and membrane efflux systems following vaginal and oral cavity administration” (Femina Pharma Incorporated, priority 2001, dated 2012).
Each block holds one compound with its values, some of them ahead of it.

How the values were obtained:
P-glycoprotein = target: T1, P-glycoprotein (Oryctolagus cuniculus, UniProt Q6UUW3); test: Apical to basolateral transport of 14C-paclitaxel across rabbit intestinal mucosa with and without glycol ethers or verapamil; assay type: in vitro ADME
T1 construct: from tissue; host or cells: rabbit intestinal mucosa (tissue perfusion / diffusion cells)
Experimental: Briefly, fresh mucosal samples are collected from female, white New Zealand rabbits, are separated from underlying connective tissue, and are mounted into modified Franz-type diffusion cells (5 mm diameter). […] Radioactivity is determined by liquid scintillation counting using a Beckman LS 6500. Each transport experiment is performed in four replicate tissue samples. […] Individual and mean Papp values with corresponding standard deviations (S.D.) are calculated for each group. Statistical significance is tested by one-way analysis of variance (ANOVA) using Tukey's family error at p<0.05. […]

cytochrome P450 = test: Cytochrome P450-mediated oxidation of coumarin to 7α-hydroxycoumarin by rabbit liver microsomes; assay type: biochemical; conditions: 1% glycol ether
Experimental: To evaluate the effect of glycol ethers on cytochrome P450-mediated metabolism, enzymatic conversion of coumarin to its 7α-hydroxycoumarin oxidation product by rabbit liver microsomes in the presence and absence of 5% DGMEE, 1% DBMPE, and 1% DGMBE is determined according to a protocol described previously by Pearce and co-workers (Arch. Biochem. Biophys., 298, 211-225 (1992)).

membrane efflux systems = test: Bidirectional transport of ritonavir across rabbit mucosa in diffusion cells (membrane efflux activity); assay type: in vitro ADME
Text: To illustrate experimentally the functional differences in membrane efflux activity among the intestinal, vaginal, and buccal mucosal barriers, bidirectional transport of the protease inhibitor ritonavir is quantitatively assessed and results seen in FIG. 1 may be obtained (FIG. 1). Experimental procedures are described in Example 2.
Briefly, fresh mucosal samples are collected from female, white New Zealand rabbits, are separated from underlying connective tissue, and are mounted into modified Franz-type diffusion cells (5 mm diameter). Permeability studies from the apical to the basolateral as well as in the opposite direction are performed using continuous-flow perfusion chambers designed for mucosal tissue (Squier et al. J. Pharm. Sci., 86, 82-84 (1997)). ^3H-Ritonavir (˜3 μCi/mL) dissolved in 1 mL of 0.01 M PBS, pH 7.4, is applied to the donor compartment, and the perfusate in the received compartment is collected into scintillation vials through 16 hrs. Radioactivity is determined by liquid scintillation counting using a Beckman LS 6500. Each transport experiment is performed in four replicate tissue samples. Apparent permeability coefficients (Papp) are calculated from steady state flux according to Papp [cm/min]=(ΔQ/Δt)/Axc(0), where ΔQ/Δt=linear appearance rate of mass in the receiver, A=cross-sectional area (i.e., 0.20 cm^2), and c(0)=initial ritonavir concentration in the donor compartment at t=0. Individual and mean Papp values with corresponding standard deviations (S.D.) are calculated for each group. Statistical significance is tested by one-way analysis of variance (ANOVA) using Tukey's family error at p<0.05. To evaluate the contribution of membrane efflux system on ritonavir permeability Refflux was calculated as the ratio of Papp(basolateral-apical)/Papp(apical-basolateral).

T1 sequence (Q6UUW3 1-1279): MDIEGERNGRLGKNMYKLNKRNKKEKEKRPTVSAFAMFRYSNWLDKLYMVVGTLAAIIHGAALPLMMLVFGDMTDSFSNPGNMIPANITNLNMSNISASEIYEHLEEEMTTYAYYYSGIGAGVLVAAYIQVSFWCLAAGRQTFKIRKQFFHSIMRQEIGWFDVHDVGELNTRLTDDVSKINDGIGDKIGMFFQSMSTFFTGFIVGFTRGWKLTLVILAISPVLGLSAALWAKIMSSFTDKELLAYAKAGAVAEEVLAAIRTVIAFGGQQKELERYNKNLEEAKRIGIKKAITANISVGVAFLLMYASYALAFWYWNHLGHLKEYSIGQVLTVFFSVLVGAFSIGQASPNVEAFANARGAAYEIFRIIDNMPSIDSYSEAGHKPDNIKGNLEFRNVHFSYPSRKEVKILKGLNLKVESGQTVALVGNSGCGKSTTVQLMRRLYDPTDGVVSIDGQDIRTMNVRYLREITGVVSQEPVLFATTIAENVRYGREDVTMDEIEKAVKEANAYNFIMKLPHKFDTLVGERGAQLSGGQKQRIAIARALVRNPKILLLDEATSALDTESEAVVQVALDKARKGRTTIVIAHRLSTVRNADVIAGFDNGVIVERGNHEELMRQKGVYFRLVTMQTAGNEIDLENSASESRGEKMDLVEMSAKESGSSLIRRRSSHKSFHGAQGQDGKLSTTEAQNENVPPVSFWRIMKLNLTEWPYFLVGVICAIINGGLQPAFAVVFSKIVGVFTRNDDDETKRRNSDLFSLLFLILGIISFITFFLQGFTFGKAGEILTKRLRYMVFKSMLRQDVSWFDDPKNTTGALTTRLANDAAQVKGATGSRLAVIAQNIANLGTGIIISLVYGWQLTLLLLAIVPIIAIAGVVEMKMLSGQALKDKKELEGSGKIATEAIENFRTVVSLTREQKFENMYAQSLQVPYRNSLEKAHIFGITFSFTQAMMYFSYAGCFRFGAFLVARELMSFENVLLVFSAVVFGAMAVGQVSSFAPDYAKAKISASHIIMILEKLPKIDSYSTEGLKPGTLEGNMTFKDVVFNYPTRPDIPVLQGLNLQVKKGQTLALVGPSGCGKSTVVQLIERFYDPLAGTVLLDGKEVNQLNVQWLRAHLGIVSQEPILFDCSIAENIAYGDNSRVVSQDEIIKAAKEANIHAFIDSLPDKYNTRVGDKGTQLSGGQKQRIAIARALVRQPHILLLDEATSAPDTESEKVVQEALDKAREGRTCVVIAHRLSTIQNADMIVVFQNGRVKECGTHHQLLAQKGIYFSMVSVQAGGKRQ

- enhancement of intestinal absorption of paclitaxel (P-glycoprotein; 1% in transport buffer): 4.1 fold
- reduction of formation of the 7α-hydroxycoumarin metabolite (cytochrome P450): about 42%
Structure (SMILES): CCCCOCCOCCO [DGMBE, diethylene glycol monobutyl ether]

- enhancement of intestinal absorption of paclitaxel (P-glycoprotein; 5% in transport buffer): 1.8 fold
Structure (SMILES): CCOCCOCCO [DGMEE, diethylene glycol mono 2-ethyl ether]

- enhancement of intestinal absorption of paclitaxel (P-glycoprotein; 1% in transport buffer): 2.5 fold
Structure (SMILES): CCCOCCOCCO [DGMPE, diethylene glycol monopropyl ether]

- Refflux compared with intestinal barrier (membrane efflux systems; buccal rabbit epithelium in vitro): significantly smaller
- basolateral to apical flux relative to the opposite direction (Refflux) (membrane efflux systems; intestinal rabbit mucosa in vitro, 3H-ritonavir): 9.2 fold
- Refflux compared with intestinal barrier (membrane efflux systems; vaginal rabbit epithelium in vitro): significantly smaller
Structure (SMILES): CC(C)c1nc(CN(C)C(=O)N[C@H](C(=O)N[C@@H](Cc2ccccc2)C[C@H](O)[C@H](Cc2ccccc2)NC(=O)OCc2cncs2)C(C)C)cs1 [ritonavir]
